Source: patent US20250026745A1 (Bluejay Therapeutics, Inc., priority 2023, published 2025)
Like-named read-outs stand apart in the source and are kept apart here.

Experiments:
[1] = target: recombinant 17β-HSD13 protein (Homo sapiens (Human), UniProt Q7Z5P4); test: 17β-HSD13 biochemical assay (NAD+/NADH Glo chemiluminescence); conditions: 17β-HSD13 50 nM, NAD+ 10 mM, β-estradiol 20 μM, 2 hours room temperature
Protocol: 17β-HSD13 biochemical assays are generically described in patents WO 2022/020730, WO 2021/003295, and WO 2023/023310. More specifically, recombinant 17β-HSD13 protein was assayed in a buffer containing 200 mM Tris pH 7.5, 0.01% Triton X-100, and 0.02% BSA into a 384-well assay plate. Compounds were incubated with 17β-HSD13 (final 50 nM) and NAD+ (final 10 mM) at room temperature for 1 h prior to substrate addition. The assay reaction was then initiated by addition of β-estradiol (final 20 μM), and the reaction mixture was incubated for 2 hours at room temperature. Product formation was detected with chemiluminescence by adding equal volume of NAD+/NADH Glo reagent (Promega, #G9062) and read on a PHERAstar microplate reader (BMG LABTECH). IC50 values were determined with GraphPad Prism®, where log-transformed concentration values and the inhibition data were fitted to a four-parameter logistic equation. Y=Bottom+(Top−Bottom)/(1+10^((Log IC50−X)*HillSlope)). The original, % control, or % inhibition data are represented by Y along with their minimal (Bottom) and maximal (Top) values. The inhibitor concentration is represented by X, IC50 is the concentration at 50% maximal value, and Hill Slope is the slope factor.

[2] = target: HEK293 cells expressing 17β-HSD13 (Homo sapiens (Human), UniProt Q7Z5P4); test: 17β-HSD13 cell-based assay (β-estradiol conversion, LC-MS/MS)
Sequence of HEK293 cells expressing 17β-HSD13 (Q7Z5P4 20-300): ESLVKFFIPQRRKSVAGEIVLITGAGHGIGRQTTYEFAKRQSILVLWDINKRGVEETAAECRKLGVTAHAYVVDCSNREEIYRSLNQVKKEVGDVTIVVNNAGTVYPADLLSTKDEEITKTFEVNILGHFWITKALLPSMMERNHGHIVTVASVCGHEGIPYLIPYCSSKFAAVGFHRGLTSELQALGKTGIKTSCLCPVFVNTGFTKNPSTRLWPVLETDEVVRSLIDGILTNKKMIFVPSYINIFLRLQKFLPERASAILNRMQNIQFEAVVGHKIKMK
Protocol: HEK293 cells expressing 17β-HSD13 either stably or transiently were incubated with compounds for 60 min at 37° C. in a humidified incubator. After this first incubation step, β-estradiol was added to each well of the microtiter plate and incubated for 3 h at 37° C. in the humidified incubator. After treatment with β-Estradiol, 50 μL of supernatant was transferred to a 96-V plate containing 100 μL acetonitrile and centrifuged at 3900 rpm for 45 min. Finally, 50 μL of supernatant were taken for LC-MS/MS analysis. The chromatography part was run on a Xbridge 30 mm×2.1 mm column (Waters), at 40 degrees Celsius and a flow rate of 0.8 mL/min for 5 min, while the MS was done on a Q Exactive Orbitrap (Fisher Scientific) in Target SIM mode and negative polarity with a spray voltage of 3.5 kV. EC50 values were determined with GraphPad Prism®, where log-transformed concentration values and the inhibition data were fitted to a four-parameter logistic equation. Y=Bottom+(Top−Bottom)/(1+10^((Log EC50−X)*Hill Slope)). The original, % control, or % inhibition data are represented by Y along with their minimal (Bottom) and maximal (Top) values. The inhibitor concentration is represented by X, EC50 is the concentration at 50% maximal value, and Hill Slope is the slope factor.

[3] = HEK293 cells stably expressing 17β-HSD13 (footnote b), read-out: EC50, nM Stable
[4] = HEK293 cells transiently expressing 17β-HSD13 (footnote a), read-out: EC50, nM Transient

Sequence of recombinant 17β-HSD13 protein (Q7Z5P4 20-300): as above

Compound	IC50 [1]	EC50 [2, 3]	EC50 [2, 4]
CCN1C(=O)C(C)N(Cc2nnc(-c3ccc(F)c(O)c3F)s2)C1=O (stereo not shown) [Compound I-3, 1-((5-(2,4-difluoro-3-hydroxyphenyl)-1,3,4-thiadiazol-2-yl)methyl)-3-ethyl-5-methylimidazolidine-2,4-dione]	86.1 nM	–	175 nM
CCCN1C(=O)N(Cc2nnc(-c3ccc(F)c(O)c3F)s2)C2(CC2)C1=O [Compound I-4, 4-((5-(2,4-difluoro-3-hydroxyphenyl)-1,3,4-thiadiazol-2-yl)methyl)-6-propyl-4,6-diazaspiro[2.4]heptane-5,7-dione]	10.6 ± 0.919 nM	–	20.6 nM
CC(C)N1C(=O)N(Cc2nnc(-c3ccc(F)c(O)c3F)s2)C2(CC2)C1=O [Compound I-5, 4-((5-(2,4-difluoro-3-hydroxyphenyl)-1,3,4-thiadiazol-2-yl)methyl)-6-isopropyl-4,6-diazaspiro[2.4]heptane-5,7-dione]	8.99 ± 0.322 nM	–	42.2 nM
O=C1N(CC23CC(C2)C3)C(=O)C2(CC2)N1Cc1nnc(-c2ccc(F)c(O)c2F)s1 [Compound I-6, 6-(bicyclo[1.1.1]pentan-1-ylmethyl)-4-((5-(2,4-difluoro-3-hydroxyphenyl)-1,3,4-thiadiazol-2-yl)methyl)-4,6-diazaspiro[2.4]heptane-5,7-dione]	22.1 ± 2.18 nM	–	165 nM
CCN1C(=O)N(Cc2nnc(-c3ccc(F)c(O)c3F)s2)C2(CC2)C1=O [Compound I-7, 4-((5-(2,4-difluoro-3-hydroxyphenyl)-1,3,4-thiadiazol-2-yl)methyl)-6-ethyl-4,6-diazaspiro[2.4]heptane-5,7-dione]	16.6 ± 8.74 nM	–	18.8 nM
CCN1C(=O)N(Cc2nnc(-c3ccc(Cl)c(O)c3Cl)s2)C2(CC2)C1=O [Compound I-9, 4-((5-(2,4-dichloro-3-hydroxyphenyl)-1,3,4-thiadiazol-2-yl)methyl)-6-ethyl-4,6-diazaspiro[2.4]heptane-5,7-dione]	150 nM	–	960 nM
CCN1C(=O)N(Cc2nnc(-c3ccc(F)c(O)c3Cl)s2)C2(CC2)C1=O [Compound I-10, 4-((5-(2-chloro-4-fluoro-3-hydroxyphenyl)-1,3,4-thiadiazol-2-yl)methyl)-6-ethyl-4,6-diazaspiro[2.4]heptane-5,7-dione]	17.9 ± 0.0566 nM	51 nM	118 nM
CCN1C(=O)N(Cc2nnc(-c3cc(C(F)(F)F)cc(O)c3F)s2)C2(CC2)C1=O [Compound I-14, 6-ethyl-4-[[5-[2-fluoro-3-hydroxy-5-(trifluoromethyl)phenyl]-1,3,4-thiadiazol-2-yl]methyl]-4,6-diazaspiro[2.4]heptane-5,7-dione]	9.6 nM	125 nM	–
O=C1N(CC(F)(F)F)C(=O)C2(CC2)N1Cc1nnc(-c2ccc(F)c(O)c2F)s1 [Compound I-15, 4-((5-(2,4-difluoro-3-hydroxyphenyl)-1,3,4-thiadiazol-2-yl)methyl)-6-(2,2,2-trifluoroethyl)-4,6-diazaspiro[2.4]heptane-5,7-dione]	8.07 ± 1.77 nM	40.9 ± 25 nM	–
O=C1N(CC2(C(F)(F)F)CC2)C(=O)C2(CC2)N1Cc1nnc(-c2ccc(F)c(O)c2F)s1 [Compound I-19, 4-((5-(2,4-difluoro-3-hydroxyphenyl)-1,3,4-thiadiazol-2-yl)methyl)-6-((1-(trifluoromethyl)cyclopropyl)methyl)-4,6-diazaspiro[2.4]heptane-5,7-dione]	14.8 ± 2.51 nM	78.8 nM	–
CCN1C(=O)N(Cc2nnc(-c3cc(O)cc(C(F)(F)F)c3)s2)C2(CC2)C1=O [Compound I-22, 6-ethyl-4-((5-(3-hydroxy-5-(trifluoromethyl)phenyl)-1,3,4-thiadiazol-2-yl)methyl)-4,6-diazaspiro[2.4]heptane-5,7-dione]	41 ± 3.9 nM	144 nM	–
O=C1N(CC2(C(F)(F)F)CC2)C(=O)C2(CC2)N1Cc1nnc(-c2ccc(F)c(O)c2Cl)s1 [Compound I-26, 4-((5-(2-chloro-4-fluoro-3-hydroxyphenyl)-1,3,4-thiadiazol-2-yl)methyl)-6-((1-(trifluoromethyl)cyclopropyl)methyl)-4,6-diazaspiro[2.4]heptane-5,7-dione]	18.7 ± 2.67 nM	107 nM	–
O=C1N(C2CCC2)C(=O)C2(CC2)N1Cc1nnc(-c2ccc(F)c(O)c2F)s1 [Compound I-30, 6-cyclobutyl-4-((5-(2,4-difluoro-3-hydroxyphenyl)-1,3,4-thiadiazol-2-yl)methyl)-4,6-diazaspiro[2.4]heptane-5,7-dione]	7.08 nM	35.9 nM	–
O=C1N(Cc2ccccc2)C(=O)C2(CC2)N1Cc1nnc(-c2cc(C(F)F)c(F)c(O)c2F)s1 [Compound I-65, 6-benzyl-4-((5-(5-(difluoromethyl)-2,4-difluoro-3-hydroxyphenyl)-1,3,4-thiadiazol-2-yl)methyl)-4,6-diazaspiro[2.4]heptane-5,7-dione]	–	19.2 nM	–
O=C1N(CC(F)(F)F)C(=O)C2(CC2)N1Cc1nnc(-c2cc(F)c(F)c(O)c2F)s1 [Compound I-68, 4-((5-(2,4,5-trifluoro-3-hydroxyphenyl)-1,3,4-thiadiazol-2-yl)methyl)-6-(2,2,2-trifluoroethyl)-4,6-diazaspiro[2.4]heptane-5,7-dione]	–	35 nM	–
O=C1N(Cc2ccccc2)C(=O)C2(CC2)N1Cc1nnc(-c2cc(F)c(F)c(O)c2F)s1 [Compound I-69, 6-benzyl-4-((5-(2,4,5-trifluoro-3-hydroxyphenyl)-1,3,4-thiadiazol-2-yl)methyl)-4,6-diazaspiro[2.4]heptane-5,7-dione]	–	21.5 nM	–

The remaining lines, values ahead:

IC50 [1]	EC50 [2, 3]	EC50 [2, 4]	Compound
4.15 nM	18.9 nM	–	6-cyclopropyl-4-[[5-(2,4-difluoro-3-hydroxy-phenyl)-1,3,4-thiadiazol-2-yl]methyl]-4,6-diazaspiro[2.4]heptane-5,7-dione [Compound I-41]
0.857 ± 0.153 nM	5.63 ± 0.961 nM	–	O=C1N(C(c2ccc(F)cc2F)C(F)(F)F)C(=O)C2(CC2)N1Cc1nnc(-c2ccc(F)c(O)c2Cl)s1 (single isomer, unassigned) [Compound I-54A]
5.6 nM	26.3 nM	–	O=C1N(C(c2ccccc2)C(F)(F)F)C(=O)C2(CC2)N1Cc1nnc(-c2ccc(F)c(O)c2Cl)s1 (stereo in doubt) [Compound I-53, 4-[[5-(2-chloro-4-fluoro-3-hydroxy-phenyl)-1,3,4-thiadiazol-2-yl]methyl]-6-[(S)-(difluoromethyl-fluoranyl)-phenyl-methyl]-4,6-diazaspiro[2.4]heptane-5,7-dione]
2.28 ± 0.933 nM	11.6 nM	–	O=C1N(Cc2ccccc2)C(=O)C2(CC2)N1Cc1nnc(-c2ccc(F)c(O)c2F)s1 [Compound I-20, 6-benzyl-4-((5-(2,4-difluoro-3-hydroxyphenyl)-1,3,4-thiadiazol-2-yl)methyl)-4,6-diazaspiro[2.4]heptane-5,7-dione]
2.68 nM	10.8 nM	–	C[C@H](c1ccccc1)N1C(=O)N(Cc2nnc(-c3ccc(F)c(O)c3Cl)s2)C2(CC2)C1=O [Compound I-31, 4-[[5-(2-chloro-4-fluoro-3-hydroxy-phenyl)-1,3,4-thiadiazol-2-yl]methyl]-6-[(1R)-1-phenylethyl]-4,6-diazaspiro[2.4]heptane-5,7-dione]
3.72 nM	14.7 nM	–	C[C@@H](c1ccccc1)N1C(=O)N(Cc2nnc(-c3ccc(F)c(O)c3Cl)s2)C2(CC2)C1=O [Compound I-32, (S)-4-((5-(2-chloro-4-fluoro-3-hydroxyphenyl)-1,3,4-thiadiazol-2-yl)methyl)-6-(1-phenylethyl)-4,6-diazaspiro[2.4]heptane-5,7-dione]
4.6 nM	119 nM	–	O=C1N(Cc2ccc(Cl)cc2Cl)C(=O)C2(CC2)N1Cc1nnc(-c2ccc(F)c(O)c2Cl)s1 [Compound I-34, 4-((5-(2-chloro-4-fluoro-3-hydroxyphenyl)-1,3,4-thiadiazol-2-yl)methyl)-6-(2,4-dichlorobenzyl)-4,6-diazaspiro[2.4]heptane-5,7-dione]
5.33 nM	40.9 nM	–	O=C1N(Cc2ccccc2)C(=O)C2(CC2)N1Cc1nnc(-c2ccc(F)c(O)c2Cl)s1 [Compound I-35, 6-benzyl-4-((5-(2-chloro-4-fluoro-3-hydroxyphenyl)-1,3,4-thiadiazol-2-yl)methyl)-4,6-diazaspiro[2.4]heptane-5,7-dione]
